PMC9706657 (2022)

Columns and labels:
Assay in all cases: ITC
Settings in all cases: Na+ 100 mM (NaCl), Mg2+ 5 mM (MgCl2); 5 mM MES, pH 5.5; aptamer on Au nanoparticle (20 µM aptananozyme in cell)
[1] = tested on: aptananozyme IV ((4)-modified pA-AuNPs) (DNA, aptamer) GTAACAACAGTCAAAAAAAAAAAAAAAAAAAAGACTGTTGTTACTGTATGTACGACGCCAGTTTGAAGGTTCGTTCGCAGGTGTGGAGTGACGTCG
[2] = tested on: aptananozyme III ((3)-modified pA-AuNPs) (DNA, aptamer) GTAACAACAGTCAAAAAAAAAAAAAAAAAAAAGACTGTTGTTACTGTACGACGCCAGTTTGAAGGTTCGTTCGCAGGTGTGGAGTGACGTCG
[3] = tested on: aptananozyme II ((2)-modified pA-AuNPs) (DNA, aptamer) GTAACAACAGTCAAAAAAAAAAAAAAAAAAAAGACTGTTGTTACCGACGCCAGTTTGAAGGTTCGTTCGCAGGTGTGGAGTGACGTCG
[4] = tested on: aptananozyme I ((1)-modified pA-AuNPs) (DNA, aptamer) CGACGCCAGTTTGAAGGTTCGTTCGCAGGTGTGGAGTGACGTCGGTAACAACAGTCAAAAAAAAAAAAAAAAAAAAGACTGTTGTTAC
[5] = tested on: aptananozyme V ((5)-modified pA-AuNPs) (DNA, aptamer) GTAACAACAGTCAAAAAAAAAAAAAAAAAAAAGACTGTTGTTACTGTATGTATGTACGACGCCAGTTTGAAGGTTCGTTCGCAGGTGTGGAGTGACGTCG

Structure (SMILES)	Kd [1] [µM]	Kd [2] [µM]	Kd [3] [µM]	Kd [4] [µM]	Kd [5] [µM]
NCCc1ccc(O)c(O)c1	0.76 ± 0.03	0.95 ± 0.04	1.20 ± 0.06	1.65 ± 0.03	0.93 ± 0.05
N[C@@H](Cc1ccc(O)c(O)c1)C(=O)O	4.2	–	–	–	–
N[C@H](Cc1ccc(O)c(O)c1)C(=O)O	11.3	–	–	–	–
